Experiments:
Assay type in all cases: in vivo
[1] = tested on: Setaria viridis (green foxtail); experiment: greenhouse post-emergence herbicidal test, green foxtail; conditions: for post-emergence action against green foxtail: application rate 0.5 kg/ha a.s.; for post-emergence control of green foxtail: application rate 1.0 kg/ha a.s.
Description: (§1) The culture containers used were plastic flowerpots containing loamy sand with approximately 3.0% of humus as the substrate. The seeds of the test plants were sown separately for each species.
(§2) For the post-emergence treatment, the test plants were first grown to a height of 3 to 15 cm, depending on the plant habit, and only then treated with the active ingredients which had been suspended or emulsified in water. For this purpose, the test plants were either sown directly and grown in the same containers, or they were first grown separately as seedlings and transplanted into the test containers a few days prior to treatment. The rate of application for the post-emergence treatment was 1.0 or 0.5 kg/ha of a.s. (active substance).
(§3) Depending on the species, the plants were kept at 10-25° C. or 20-35° C. The test period extended over 2 to 4 weeks. During this time, the plants were tended, and their response to the individual treatments was evaluated.
(§4) Evaluation was carried out using a scale from 0 to 100. 100 means no emergence of the plants, or complete destruction of at least the aerial parts, and 0 means no damage, or normal course of growth.
(§5) The plants used in the greenhouse experiments belonged to the following species: […]

[2] = tested on: Chenopodium album (lambsquarters); experiment: greenhouse post-emergence herbicidal test, lambsquarters; conditions: for post-emergence action against lambsquarters: application rate 0.5 kg/ha a.s.; for post-emergence control of lambsquarters: application rate 1.0 kg/ha a.s.
Description: as §1, §2, §3, §4, §5

[3] = tested on: Amaranthus retroflexus (pig weed); experiment: greenhouse post-emergence herbicidal test, pig weed; conditions: for post-emergence action against pig weed: application rate 0.5 kg/ha a.s.; for post-emergence control of pig weed: application rate 1.0 kg/ha a.s.
Description: as §1, §2, §3, §4, §5

CNC(=O)C(NC(=O)c1ccc(F)cc1C(F)(F)F)C(OC(=O)N(C)C)c1cccs1 (mixture of isomers) [Compound 3.10]
very good: post-emergence action against green foxtail [1] | post-emergence action against lambsquarters [2] | post-emergence action against pig weed [3]

CNC(=O)C(NC(=O)c1ccc(F)cc1C(F)(F)F)C(OC(=O)N(C)C)c1ccsc1 (mixture of isomers) [Compound 3.11]
very good: post-emergence control of green foxtail [1] | post-emergence control of lambsquarters [2] | post-emergence control of pig weed [3]

CNC(=O)C(NC(=O)c1ccccc1C(F)(F)F)C(O)c1ccn(C)n1 (mixture of isomers) [Compound 3.14]
very good: post-emergence control of green foxtail [1] | post-emergence control of lambsquarters [2] | post-emergence control of pig weed [3]

CNC(=O)C(NC(=O)c1ccccc1C(F)(F)F)C(OC(=O)N(C)C)c1ccn(C)n1 (mixture of isomers) [Compound 3.20]
very good: post-emergence control of green foxtail [1] | post-emergence control of lambsquarters [2] | post-emergence control of pig weed [3]

CNC(=O)C(NC(=O)c1ccccc1C(F)(F)F)C(OC(=O)N(C)C)c1ccn(C)n1 (mixture of isomers) [Compound 3.21]
very good: post-emergence action against green foxtail [1] | post-emergence action against lambsquarters [2] | post-emergence action against pig weed [3]

CNC(=O)C(NC(=O)c1ccc(F)cc1C(F)(F)F)C(O)c1ccc(Cl)s1 (mixture of isomers) [Compound 3.28]
very good: post-emergence action against green foxtail [1] | post-emergence action against lambsquarters [2] | post-emergence action against pig weed [3]

CNC(=O)C(NC(=O)c1ccc(F)cc1C(F)(F)F)C(O)c1ccccn1 (mixture of isomers) [Compound 3.36]
very good: post-emergence action against green foxtail [1] | post-emergence action against lambsquarters [2] | post-emergence action against pig weed [3]

CNC(=O)C(NC(=O)c1ccc(F)cc1C(F)(F)F)C(O)c1cccnc1Cl (mixture of isomers) [Compound 3.39]
very good: post-emergence control of green foxtail [1] | post-emergence control of lambsquarters [2] | post-emergence control of pig weed [3]

CNC(=O)C(NC(=O)c1ccc(F)cc1C(F)(F)F)C(O)c1cccnc1Cl (mixture of isomers) [Compound 3.40]
very good: post-emergence control of green foxtail [1] | post-emergence control of lambsquarters [2] | post-emergence control of pig weed [3]

CNC(=O)C(NC(=O)c1ccc(F)cc1C(F)(F)F)C(O)c1ccc[n+]([O-])c1Cl (mixture of isomers) [Compound 3.41]
very good: post-emergence action against green foxtail [1] | post-emergence action against lambsquarters [2] | post-emergence action against pig weed [3]

CNC(=O)C(NC(=O)c1ccc(F)cc1C(F)(F)F)C(OC(C)=O)c1ccccn1 (mixture of isomers) [Compound 3.53]
very good: post-emergence action against green foxtail [1] | post-emergence action against lambsquarters [2] | post-emergence action against pig weed [3]

CNC(=O)C(NC(=O)c1ccc(F)cc1C(F)(F)F)C(OC(=O)N(C)C)c1ccc(Cl)s1 (mixture of isomers) [Compound 3.66]
very good: post-emergence action against green foxtail [1] | post-emergence action against lambsquarters [2] | post-emergence action against pig weed [3]

CNC(=O)C(NC(=O)c1ccc(F)cc1C(F)(F)F)C(OC(=O)N(C)C)c1ccccn1 (mixture of isomers) [Compound 3.69]
very good: post-emergence action against green foxtail [1] | post-emergence action against lambsquarters [2] | post-emergence action against pig weed [3]

CNC(=O)C(NC(=O)c1ccc(F)cc1C(F)(F)F)C(OC(C)=O)c1cccnc1Cl (racemic) [Compound 3.56]
very good: post-emergence action against green foxtail [1] | post-emergence action against lambsquarters [2] | post-emergence action against pig weed [3]

CNC(=O)C(NC(=O)c1ccc(F)cc1C(F)(F)F)C(OC(C)=O)c1cnccc1Cl (racemic) [Compound 3.57]
very good: post-emergence action against green foxtail [1] | post-emergence action against lambsquarters [2] | post-emergence action against pig weed [3]

CNC(=O)C(NC(=O)c1ccc(F)cc1C(F)(F)F)C(OC(C)=O)c1ccncc1Cl (racemic) [Compound 3.59]
very good: post-emergence action against green foxtail [1] | post-emergence action against lambsquarters [2] | post-emergence action against pig weed [3]

CNC(=O)C(NC(=O)c1ccc(F)cc1C(F)(F)F)C(OC(=O)N(C)C)c1cccnc1F (racemic) [Compound 3.71]
very good: post-emergence action against green foxtail [1] | post-emergence action against lambsquarters [2] | post-emergence action against pig weed [3]

CNC(=O)C(NC(=O)c1ccc(F)cc1C(F)(F)F)C(OC(=O)N(C)C)c1cnccc1Cl (racemic) [Compound 3.74]
very good: post-emergence action against green foxtail [1] | post-emergence action against lambsquarters [2] | post-emergence action against pig weed [3]

CNC(=O)C(NC(=O)c1ccc(F)cc1C(F)(F)F)C(OC(=O)N(C)C)c1ccc[n+]([O-])c1Cl (racemic) [Compound 3.75]
very good: post-emergence action against green foxtail [1] | post-emergence action against lambsquarters [2] | post-emergence action against pig weed [3]

CC[Si](CC)(CC)OC(c1ccsc1)C(NC(=O)c1ccc(F)cc1C(F)(F)F)C(=O)NC [Compound 3.13, (2S,3R)-threo-4-Fluoro-N-(1-methylcarbamoyl-2-thiophen-3-yl-2-triethylsilanyloxyethyl)-2-trifluoromethylbenzamide]
very good: post-emergence control of green foxtail [1] | post-emergence control of lambsquarters [2] | post-emergence control of pig weed [3]

CNC(=O)[C@@H](NC(=O)c1ccc(F)cc1C(F)(F)F)C(OC(=O)CSC)c1cccs1 (stereo partly drawn) [Compound 3.63]
very good: post-emergence action against green foxtail [1] | post-emergence action against lambsquarters [2] | post-emergence action against pig weed [3]

CNC(=O)[C@@H](NC(=O)c1ccc(F)cc1C(F)(F)F)C(OC(=O)N(C)C)c1cccs1 (stereo partly drawn) [Compound 3.65]
very good: post-emergence action against green foxtail [1] | post-emergence action against lambsquarters [2] | post-emergence action against pig weed [3]

CC[Si](CC)(CC)OC(c1ccc(Cl)s1)[C@H](NC(=O)c1ccc(F)cc1C(F)(F)F)C(=O)NC (stereo partly drawn) [Compound 3.79]
very good: post-emergence control of green foxtail [1] | post-emergence control of lambsquarters [2] | post-emergence control of pig weed [3]

Source: patent US20080103049A1, “Benzoyl-Substituted Serineamides” (BSDG Aktiengesellschaft, priority 2004, published 2008)
